Positions of bridges follow the written chain, without caps; N, C: chain ends. Non-standard residues stand in square brackets, D forms with d. Residues, ends and D or L forms follow the SMILES beside them. Lys(Me2) = CN(C)CCCC[C@H](N)C(=O)O; R8 = C=CCCCCCC[C@@](C)(N)C(=O)O; S5 = C=CCCC[C@](C)(N)C(=O)O; Ahx = NCCCCCC(=O)O
The compounds below were run against T1, Mdm2 (1-125) (Homo sapiens, UniProt Q00987) (assay: Mdm2 competitive fluorescence anisotropy assay (FAM-labeled 12/1 peptide displacement)). Settings: read-out: Kd (apparent dissociation constant, competitive fluorescence anisotropy).
T1 construct: Purified MDM2 (1-125) protein was titrated against 50 nM carboxyfluorescein (FAM)-labeled; GST (N, cleaved yes); made in house; host or cells: E. coli BL21 DE3 (pGEX-6P-1)
Format: binding
Description: analyzed with SDS page gel and concentrated using a Centricon (3.5 kDa MWCO) concentrator, Millipore. Mdm2 protein samples were then dialyzed into a buffer solution containing 20mM Bis-Tris, pH 6.5, 0.05M NaCl with 1mM DTT and loaded onto a monoS column pre-equilibrated in buffer A (20mM Bis-Tris, pH 6.5, 1mM DTT). The column was then washed in 6 column volumes of buffer A and bound protein was eluted with a linear gradient of 1M NaCL over 25 column volumes. Protein fractions were analyzed with SDS page gel and concentrated using a Centricon (3.5 kDa MWCO) concentrator, Millipore.
Protein concentration was determined using A280 using an extinction coefficients […]
Mdm2 Competitive Fluorescence Anisotropy Assay and Kd Determination […]
Dissociation constants for titration of MDM2 against […]
equation shown below:25,26
[P] is the protein concentration (MDM2), [L] is the labeled peptide concentration, r is the anisotropy measured, r0 is the anisotropy of the free peptide, rb is the anisotropy of the MDM2– FAM-labeled peptide complex, Kd is the dissociation constant, [L]t is the total FAM labeled
(1 picture or pasted object on this page, not shown here) […]
peptide concentration, and [P]t is the total MDM2 concentration. […]
respective competing ligands in subsequent competition assays.
Apparent Kd values were determined for a variety of molecules via competitive fluorescence anisotropy experiments. Titrations were carried out with the concentration of MDM2 held constant […]
The competing molecules were then titrated against the complex of the FAM-labeled peptide and protein. Apparent Kd values were determined by fitting the experimental data to the equations shown below:26,27 […]
[L]st and [L]t denote labeled ligand and total unlabeled ligand input concentrations, respectively.
Kd2 is the dissociation constant of the interaction between the unlabeled ligand and the protein. In […]
all competitive types of experiments, it is assumed that [P]t > [L]st, otherwise considerable amounts of free labeled ligand would always be present and would interfere with measurements. Kd1 is the […]
experimentally determined as described in the previous paragraph. The FAM-labeled peptide was dissolved in dimethyl sulfoxide (DMSO) at 1 mM and diluted into experimental buffer. Readings were carried out with an Envision Multilabel Reader (PerkinElmer). Experiments were carried out […]
Tween 20 buffer. All titrations were carried out in triplicate. Curve-fitting was carried out using […]
Negative control titrations of the ligands under investigation were also carried out with the fluorescently labeled peptide (in the absence of MDM2) to ensure no interactions were occurring between the ligands and FAM-labeled peptide. […]
which would otherwise indicate an unintended interaction between the ligand and the FAM-labeled peptide to be displaced from the MDM2 binding site. […]
Further: 250 nM MDM2.

T1 sequence (Q00987 1-125): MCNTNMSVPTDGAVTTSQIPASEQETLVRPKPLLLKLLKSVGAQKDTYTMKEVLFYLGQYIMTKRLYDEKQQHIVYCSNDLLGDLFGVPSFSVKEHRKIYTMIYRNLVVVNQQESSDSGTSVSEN

SMILES	Kd
CC(=O)N[C@@H](CCCNC(=N)N)C(=O)N[C@@H](CCCNC(=N)N)C(=O)N[C@@H](CCCNC(=N)N)C(=O)NCCCCCC(=O)N[C@H](C(=O)N[C@@H](CO)C(=O)N[C@@H](CC(C)C)C(=O)N[C@]1(C)CCCCCCC=CCCC[C@@](C)(C(=O)N[C@@H](CCC(=O)O)C(=O)N[C@@H](CC(N)=O)C(=O)N[C@@H](Cc2ccccc2)C(N)=O)NC(=O)[C@H](Cc2c[nH]c3ccccc23)NC(=O)[C@H](CC(C)C)NC(=O)[C@H](C)NC(=O)[C@H](Cc2ccccc2)NC(=O)[C@H](Cc2ccc(O)cc2)NC(=O)[C@H](CCC(=O)O)NC1=O)[C@@H](C)O [VIP-128 SCRAM] (Ac-RRR[Ahx]TSL[R8]EYFALW[S5]ENF-NH2; staple 8-15)	> 10 µM
CC(C)C[C@@H]1NC(=O)[C@H](C)NC(=O)[C@H](Cc2c[nH]c3ccccc23)NC(=O)[C@H](Cc2ccc(O)cc2)NC(=O)[C@H](CCC(=O)O)NC(=O)[C@](C)(NC(=O)[C@H](Cc2ccccc2)NC(=O)[C@H](CO)NC(=O)[C@@H](NC(=O)CCCCCNC(=O)CCCC[C@@H]2SC[C@@H]3NC(=O)N[C@@H]32)[C@@H](C)O)CCCCCCC=CCCC[C@@](C)(C(=O)N[C@@H](CCC(=O)O)C(=O)N[C@@H](CC(N)=O)C(=O)N[C@@H](Cc2ccccc2)C(N)=O)NC(=O)[C@H](CC(C)C)NC1=O [VIP-83]	0.0246 ± 0.0022 µM
CC(=O)N[C@H](C(=O)N[C@@H](CO)C(=O)N[C@@H](Cc1ccccc1)C(=O)N[C@]1(C)CCCCCCC=CCCC[C@@](C)(C(=O)N[C@@H](CCC(=O)O)C(=O)N[C@@H](CC(N)=O)C(=O)N[C@@H](Cc2ccccc2)C(N)=O)NC(=O)[C@H](CC(C)C)NC(=O)[C@H](CC(C)C)NC(=O)[C@H](C)NC(=O)[C@H](Cc2c[nH]c3ccccc23)NC(=O)[C@H](Cc2ccc(O)cc2)NC(=O)[C@H](CCC(=O)O)NC1=O)[C@@H](C)O [VIP-65]	0.0197 ± 0.0013 µM
CC(=O)N[C@H](C(=O)N[C@@H](CO)C(=O)N[C@@H](Cc1ccccc1)C(=O)NC(C)(C)C(=O)N[C@@H](CCC(=O)O)C(=O)N[C@@H](Cc1ccc(O)cc1)C(=O)N[C@@H](Cc1c[nH]c2ccccc12)C(=O)N[C@@H](C)C(=O)N[C@@H](CC(C)C)C(=O)N[C@@H](CC(C)C)C(=O)NC(C)(C)C(=O)N[C@@H](CCC(=O)O)C(N)=O)[C@@H](C)O [VIP-76]	0.0359 ± 0.0023 µM
CC(=O)N[C@@H](CCCCN)C(=O)N[C@@H](CCCCN)C(=O)NCCCCCC(=O)N[C@H](C(=O)N[C@@H](CO)C(=O)N[C@@H](Cc1ccccc1)C(=O)N[C@]1(C)CCCCCCC=CCCC[C@@](C)(C(N)=O)NC(=O)[C@H](CC(C)C)NC(=O)[C@H](CC(C)C)NC(=O)[C@H](C)NC(=O)[C@H](Cc2c[nH]c3ccccc23)NC(=O)[C@H](Cc2ccc(O)cc2)NC(=O)[C@H](CCC(=O)O)NC1=O)[C@@H](C)O [VIP-77]	0.0468 ± 0.0039 µM
CC(=O)N[C@@H](CCCCN)C(=O)NCCCCCC(=O)N[C@H](C(=O)N[C@@H](CO)C(=O)N[C@@H](Cc1ccccc1)C(=O)N[C@]1(C)CCCCCCC=CCCC[C@@](C)(C(=O)N[C@@H](CCC(=O)O)C(=O)N[C@@H](CC(N)=O)C(=O)N[C@@H](Cc2ccccc2)C(N)=O)NC(=O)[C@H](CC(C)C)NC(=O)[C@H](CC(C)C)NC(=O)[C@H](C)NC(=O)[C@H](Cc2c[nH]c3ccccc23)NC(=O)[C@H](Cc2ccc(O)cc2)NC(=O)[C@H](CCC(=O)O)NC1=O)[C@@H](C)O [VIP-116]	0.0151 ± 0.0017 µM
CC(=O)N[C@H](C(=O)N[C@@H](CO)C(=O)N[C@@H](Cc1ccccc1)C(=O)N[C@]1(C)CCCCCCC=CCCC[C@@](C)(C(=O)N[C@@H](CCC(=O)O)C(=O)N[C@@H](CC(N)=O)C(=O)N[C@@H](Cc2ccc(O)cc2)C(N)=O)NC(=O)[C@H](CC(C)C)NC(=O)[C@H](CC(C)C)NC(=O)[C@H](C)NC(=O)[C@H](Cc2c[nH]c3ccccc23)NC(=O)[C@H](Cc2ccc(O)cc2)NC(=O)[C@H](CCC(=O)O)NC1=O)[C@@H](C)O [VIP-66]	0.0231 ± 0.0015 µM
CC(=O)N[C@@H](CCCCN(C)C)C(=O)N[C@@H](CCCCN(C)C)C(=O)NCCCCCC(=O)N[C@H](C(=O)N[C@@H](CO)C(=O)N[C@@H](Cc1ccccc1)C(=O)N[C@]1(C)CCCCCCC=CCCC[C@@](C)(C(=O)N[C@@H](CCC(=O)O)C(=O)N[C@@H](CC(N)=O)C(=O)N[C@@H](Cc2ccccc2)C(N)=O)NC(=O)[C@H](CC(C)C)NC(=O)[C@H](CC(C)C)NC(=O)[C@H](C)NC(=O)[C@H](Cc2c[nH]c3ccccc23)NC(=O)[C@H](Cc2ccc(O)cc2)NC(=O)[C@H](CCC(=O)O)NC1=O)[C@@H](C)O [VIP-131] (Ac-[Lys(Me2)][Lys(Me2)][Ahx]TSF[R8]EYWALL[S5]ENF-NH2; staple 7-14)	0.0256 ± 0.0026 µM
CC(C)C[C@@H]1NC(=O)[C@H](C)NC(=O)[C@H](Cc2c[nH]c3ccccc23)NC(=O)[C@H](Cc2ccc(O)cc2)NC(=O)[C@H](CCC(=O)O)NC(=O)[C@](C)(NC(=O)[C@H](Cc2ccccc2)NC(=O)[C@H](CO)NC(=O)[C@@H](NC(=O)CCCCCNC(=O)CCCC[C@@H]2SC[C@@H]3NC(=O)N[C@@H]32)[C@@H](C)O)CCCCCCC=CCCC[C@@](C)(C(=O)N[C@@H](CCC(=O)O)C(=O)N[C@@H](CC(N)=O)C(=O)N[C@@H](Cc2ccc(O)cc2)C(N)=O)NC(=O)[C@H](CC(C)C)NC1=O [VIP-87]	0.0462 ± 0.0033 µM

Now those with a lower Kd, led by results:

Kd	SMILES
0.01 ± 0.001 µM	CC(=O)N[C@H](CCCCN)C(=O)N[C@H](CCCCN)C(=O)NCCCCCC(=O)N[C@H](C(=O)N[C@@H](CO)C(=O)N[C@@H](Cc1ccccc1)C(=O)N[C@]1(C)CCCCCCC=CCCC[C@@](C)(C(=O)N[C@@H](CCC(=O)O)C(=O)N[C@@H](CC(N)=O)C(=O)N[C@@H](Cc2ccccc2)C(N)=O)NC(=O)[C@H](CC(C)C)NC(=O)[C@H](CC(C)C)NC(=O)[C@H](C)NC(=O)[C@H](Cc2c[nH]c3ccccc23)NC(=O)[C@H](Cc2ccc(O)cc2)NC(=O)[C@H](CCC(=O)O)NC1=O)[C@@H](C)O [VIP-133] (Ac-[dK][dK][Ahx]TSF[R8]EYWALL[S5]ENF-NH2; staple 7-14)
0.008 ± 0.0008 µM	CC(=O)N[C@H](CCCCN)C(=O)NCCCCCC(=O)N[C@H](C(=O)N[C@@H](CO)C(=O)N[C@@H](Cc1ccccc1)C(=O)N[C@]1(C)CCCCCCC=CCCC[C@@](C)(C(=O)N[C@@H](CCC(=O)O)C(=O)N[C@@H](CC(N)=O)C(=O)N[C@@H](Cc2ccccc2)C(N)=O)NC(=O)[C@H](CC(C)C)NC(=O)[C@H](CC(C)C)NC(=O)[C@H](C)NC(=O)[C@H](Cc2c[nH]c3ccccc23)NC(=O)[C@H](Cc2ccc(O)cc2)NC(=O)[C@H](CCC(=O)O)NC1=O)[C@@H](C)O [VIP-132]
0.0062 ± 0.0009 µM	CC(=O)N[C@H](CCCCN)C(=O)N[C@H](CCCCN)C(=O)N[C@H](CCCCN)C(=O)NCCCCCC(=O)N[C@H](C(=O)N[C@@H](CO)C(=O)N[C@@H](Cc1ccccc1)C(=O)N[C@]1(C)CCCCCCC=CCCC[C@@](C)(C(=O)N[C@@H](CCC(=O)O)C(=O)N[C@@H](CC(N)=O)C(=O)N[C@@H](Cc2ccccc2)C(N)=O)NC(=O)[C@H](CC(C)C)NC(=O)[C@H](CC(C)C)NC(=O)[C@H](C)NC(=O)[C@H](Cc2c[nH]c3ccccc23)NC(=O)[C@H](Cc2ccc(O)cc2)NC(=O)[C@H](CCC(=O)O)NC1=O)[C@@H](C)O [VIP-134] (Ac-[dK][dK][dK][Ahx]TSF[R8]EYWALL[S5]ENF-NH2; staple 8-15)
0.0027 ± 0.0009 µM	CC(=O)N[C@@H](CCCCN)C(=O)N[C@@H](CCCCN)C(=O)NCCCCCC(=O)N[C@@H](CC(C)C)C(=O)N[C@H](C(=O)N[C@@H](Cc1ccccc1)C(=O)N[C@]1(C)CCCCCCC=CCCC[C@@](C)(C(=O)N[C@@H](CCC(=O)O)C(=O)N[C@@H](CC(N)=O)C(=O)N[C@@H](Cc2ccccc2)C(N)=O)NC(=O)[C@H](CC(C)C)NC(=O)[C@H](CC(C)C)NC(=O)[C@H](C)NC(=O)[C@H](Cc2c[nH]c3ccccc23)NC(=O)[C@H](Cc2ccc(O)cc2)NC(=O)[C@H](CCC(=O)O)NC1=O)[C@@H](C)O [VIP-119] (Ac-KK[Ahx]LTF[R8]EYWALL[S5]ENF-NH2; staple 7-14)
0.0018 ± 0.0007 µM	CC(=O)N[C@@H](CC(C)C)C(=O)N[C@H](C(=O)N[C@@H](Cc1ccccc1)C(=O)N[C@]1(C)CCCCCCC=CCCC[C@@](C)(C(=O)N[C@@H](CCC(=O)O)C(=O)N[C@@H](CC(N)=O)C(=O)N[C@@H](Cc2ccccc2)C(N)=O)NC(=O)[C@H](CC(C)C)NC(=O)[C@H](CC(C)C)NC(=O)[C@H](C)NC(=O)[C@H](Cc2c[nH]c3ccccc23)NC(=O)[C@H](Cc2ccc(O)cc2)NC(=O)[C@H](CCC(=O)O)NC1=O)[C@@H](C)O [VIP-120] (Ac-LTF[R8]EYWALL[S5]ENF-NH2; staple 4-11)

— publication PMC5431883, “Enhancing Specific Disruption of Intracellular Protein Complexes by Hydrocarbon Stapled Peptides Using Lipid Based Delivery” (Scientific Reports, 2017)
